US7138361B2, “Herbicidal heterocycles” (E. I. du Pont de Nemours and Company, priority 2000, dated 2006)

Assays:
Assay type in all cases: in vivo
Sunflower = experiment: Test C preemergence; settings: Rate 125 g/ha, scale 0 to 100, 0 no effect, 100 complete control
soybean (Glycine max) = experiment: Test C preemergence; settings: for Plant response rating (0 to 100), Soybean: Rate 250 g/ha, visual evaluation after 12 to 14 days
Procedure, shortened: (§1)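 Formulation: non-phytotoxic solvent mix incl. surfactant. Pre: applied right after planting. Post: 1–4-leaf seedlings. Read: visual 0–100, day 12–14, greenhouse.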

[1] = test system: bermudagrass (Cynodon dactylon); experiment: Test C preemergence; settings: for Plant response rating (0 to 100 where 0 is no effect and 100 is complete control), Bermudagrass: Rate 250 g/ha, visual evaluation after 12 to 14 days
Procedure, shortened: as §1

[2] = test system: woolly cupgrass (Eriochloa villosa); experiment: Test C preemergence; settings: for Plant response rating (0 to 100), Cupgrass, Woolly: Rate 250 g/ha, visual evaluation after 12 to 14 days
Procedure, shortened: as §1

[3] = test system: Surinam grass (Brachiaria decumbens); experiment: Test C preemergence; settings: for Plant response rating (0 to 100), Surinam grass: Rate 250 g/ha, visual evaluation after 12 to 14 days
Procedure, shortened: as §1

[4] = test system: crabgrass (Digitaria sanguinalis); experiment: Test C preemergence; settings: for Plant response rating (0 to 100), Crabgrass: Rate 250 g/ha, visual evaluation after 12 to 14 days
Procedure, shortened: as §1

[5] = test system: cocklebur (Xanthium strumarium); experiment: Test C preemergence; settings: for Plant response rating (0 to 100), Cocklebur: Rate 250 g/ha, visual evaluation after 12 to 14 days
Procedure, shortened: as §1

[6] = test system: giant foxtail (Setaria faberii); experiment: Test C preemergence; settings: for Plant response rating (0 to 100), Foxtail, Giant: Rate 250 g/ha, visual evaluation after 12 to 14 days
Procedure, shortened: as §1

[7] = test system: pigweed (Amaranthus retroflexus); experiment: Test C preemergence; settings: for Plant response rating (0 to 100), Pigweed: Rate 250 g/ha, visual evaluation after 12 to 14 days
Procedure, shortened: as §1

kochia (Kochia scoparia) = experiment: Test C preemergence; settings: for Plant response rating (0 to 100), Kochia: Rate 250 g/ha, visual evaluation after 12 to 14 days
Procedure, shortened: as §1

Nightshade = experiment: Test C preemergence; settings: Rate 250 g/ha, visual evaluation after 12 to 14 days
rice (Oryza saliva) = experiment: Test B preemergence
Procedure, shortened: (§2)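 Pre: seeded pots sprayed, chemical in non-phytotoxic solvent/surfactant mix. Post: plants 2–18 cm, 1–4 leaf, same formulation. Greenhouse 13–15 d; visual % control vs untreated, 0–100 scale.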

[8] = test system: lambsquarters (Chenopodium album); experiment: Test B preemergence
Procedure, shortened: as §2

corn (Zea mays) = experiment: Test B preemergence
Procedure, shortened: as §2

[9] = test system: barnyardgrass (Echinochloa crus-galli); experiment: Test B preemergence
Procedure, shortened: as §2

[10] = test system: Surinam grass (Brachiaria decumbens); experiment: Test B preemergence
Procedure, shortened: as §2

[11] = test system: crabgrass (Digitaria sanguinalis); experiment: Test B preemergence
Procedure, shortened: as §2

[12] = test system: cocklebur (Xanthium strumarium); experiment: Test B preemergence
Procedure, shortened: as §2

[13] = test system: velvetleaf (Abutilon theophrasti); experiment: Test B preemergence
Procedure, shortened: as §2

[14] = test system: giant foxtail (Setaria faberii); experiment: Test B preemergence
Procedure, shortened: as §2

[15] = test system: pigweed (Amaranthus retroflexus); experiment: Test B preemergence
Procedure, shortened: as §2

[16] = test system: morning glory (Ipomoea hederacea); experiment: Test B preemergence
Procedure, shortened: as §2

[17] = Preemergence, Rate 500 g/ha, scale 0 to 100
[18] = Rate 62 g/ha, scale 0 to 100, 0 no effect, 100 complete control
[19] = preemergence, Rate 31 g/ha, scale 0 to 100
[20] = preemergence, Rate 125 g/ha, scale 0 to 100, 0 no effect, 100 complete control
[21] = Preemergence, Rate 500 g/ha, scale 0 to 100, 0 no effect, 100 complete control
[22] = preemergence, Rate 125 g/ha, scale of 0 to 100 where 0 is no effect and 100 is complete control, 13 to 15 days

Structure (SMILES): CC(C)(C)c1ccn(C2CCN(c3cccc(OC(F)(F)F)c3)C2=O)n1 (stereo not shown) [Compound 49]
- Plant response rating, Sunflower (Sunflower): 20
- Plant response rating, Soybean (soybean (Glycine max); [17]): 80
- Plant response rating, Soybean (soybean (Glycine max); [18]): 0
- Plant response rating, Soybean (soybean (Glycine max); [19]): 0
- Plant response rating (0 to 100), Soybean (soybean (Glycine max); preemergence): 50
- Plant response rating, Soybean (soybean (Glycine max); [20]): 40
- Plant response rating, Bermudagrass [1, 17]: 100
- Plant response rating, Bermudagrass [1, 18]: 100
- Plant response rating, Bermudagrass [1, 19]: 0
- Plant response rating (0 to 100 where 0 is no effect and 100 is complete control), Bermudagrass ([1]; preemergence): 100
- Plant response rating, Bermudagrass [1, 20]: 100
- Plant response rating, Cupgrass, Woolly [2, 17]: 100
- Plant response rating, Cupgrass, Woolly [2, 18]: 30
- Plant response rating, Cupgrass, Woolly [2, 19]: 20
- Plant response rating (0 to 100), Cupgrass, Woolly ([2]; preemergence): 70
- Plant response rating, Cupgrass, Woolly [2, 20]: 60
- Plant response rating, Surinam grass [3, 17]: 80
- Plant response rating, Surinam grass [3, 18]: 0
- Plant response rating, Surinam grass [3, 19]: 0
- Plant response rating (0 to 100), Surinam grass ([3]; preemergence): 70
- Plant response rating, Surinam grass [3, 20]: 0
- Plant response rating, Crabgrass [4, 17]: 100
- Plant response rating, Crabgrass [4, 18]: 100
- Plant response rating, Crabgrass [4, 19]: 0
- Plant response rating (0 to 100), Crabgrass ([4]; preemergence): 100
- Plant response rating, Crabgrass [4, 20]: 100
- Plant response rating, Cocklebur [5, 17]: 20
- Plant response rating, Cocklebur [5, 18]: 0
- Plant response rating, Cocklebur [5, 19]: 0
- Plant response rating (0 to 100), Cocklebur ([5]; preemergence): 0
- Plant response rating, Cocklebur [5, 20]: 0
- Plant response rating, Foxtail, Giant [6, 17]: 100
- Plant response rating, Foxtail, Giant [6, 18]: 0
- Plant response rating, Foxtail, Giant [6, 19]: 0
- Plant response rating (0 to 100), Foxtail, Giant ([6]; preemergence): 100
- Plant response rating, Foxtail, Giant [6, 20]: 100
- Plant response rating, Pigweed [7, 17]: 100
- Plant response rating, Pigweed [7, 18]: 100
- Plant response rating, Pigweed [7, 19]: 70
- Plant response rating (0 to 100), Pigweed ([7]; preemergence): 100
- Plant response rating, Pigweed [7, 20]: 100
- Plant response rating, Kochia (kochia (Kochia scoparia); [17]): 100
- Plant response rating, Kochia (kochia (Kochia scoparia); [18]): 90
- Plant response rating, Kochia (kochia (Kochia scoparia); [19]): 50
- Plant response rating (0 to 100), Kochia (kochia (Kochia scoparia); preemergence): 100
- Plant response rating, Kochia (kochia (Kochia scoparia); [20]): 90
- Plant response rating (0 to 100), Nightshade (Nightshade): 50
- Plant response rating, Rice (rice (Oryza saliva); [21]): 20
- Plant response rating, Rice (rice (Oryza saliva); [22]): 0
- Plant response rating, Lambsquarters [8, 21]: 100
- Plant response rating, Lambsquarters [8, 22]: 100
- Plant response rating, Corn (corn (Zea mays); [21]): 0
- Plant response rating, Corn (corn (Zea mays); [22]): 0
- Plant response rating, Barnyardgrass [9, 21]: 100
- Plant response rating, Barnyardgrass [9, 22]: 100
- Plant response rating, Surinam grass [10, 21]: 0
- Plant response rating, Surinam grass [10, 22]: 0
- Plant response rating, Crabgrass [11, 21]: 0
- Plant response rating, Crabgrass [11, 22]: 0
- Plant response rating, Cocklebur [12, 21]: 0
- Plant response rating, Cocklebur [12, 22]: 0
- Plant response rating, Velvetleaf [13, 21]: 0
- Plant response rating, Velvetleaf [13, 22]: 0
- Plant response rating, Foxtail, Giant [14, 21]: 90
- Plant response rating, Foxtail, Giant [14, 22]: 0
- Plant response rating, Pigweed [15, 21]: 100
- Plant response rating, Pigweed [15, 22]: 100
- Plant response rating, Morningglory [16, 21]: 30
- Plant response rating, Morningglory [16, 22]: 0

Structure (SMILES): O=C1C(n2ccc(C3CCCCC3)n2)SCN1c1cccc(OC(F)(F)F)c1 (stereo not shown) [Compound 50]
- Plant response rating, Sunflower (Sunflower): 30
- Plant response rating, Soybean (soybean (Glycine max); [17]): 40
- Plant response rating (0 to 100), Soybean (soybean (Glycine max); preemergence): 0
- Plant response rating, Soybean (soybean (Glycine max); [20]): 0
- Plant response rating, Bermudagrass [1, 17]: 100
- Plant response rating, Bermudagrass [1, 18]: 100
- Plant response rating (0 to 100 where 0 is no effect and 100 is complete control), Bermudagrass ([1]; preemergence): 100
- Plant response rating, Bermudagrass [1, 20]: 100
- Plant response rating, Cupgrass, Woolly [2, 17]: 90
- Plant response rating, Cupgrass, Woolly [2, 18]: 20
- Plant response rating (0 to 100), Cupgrass, Woolly ([2]; preemergence): 90
- Plant response rating, Cupgrass, Woolly [2, 20]: 20
- Plant response rating, Surinam grass [3, 17]: 50
- Plant response rating, Surinam grass [3, 18]: 20
- Plant response rating (0 to 100), Surinam grass ([3]; preemergence): 50
- Plant response rating, Surinam grass [3, 20]: 30
- Plant response rating, Crabgrass [4, 17]: 100
- Plant response rating, Crabgrass [4, 18]: 100
- Plant response rating (0 to 100), Crabgrass ([4]; preemergence): 100
- Plant response rating, Crabgrass [4, 20]: 100
- Plant response rating, Cocklebur [5, 17]: 0
- Plant response rating (0 to 100), Cocklebur ([5]; preemergence): 0
- Plant response rating, Cocklebur [5, 20]: 0
- Plant response rating, Foxtail, Giant [6, 17]: 100
- Plant response rating, Foxtail, Giant [6, 18]: 60
- Plant response rating (0 to 100), Foxtail, Giant ([6]; preemergence): 20
- Plant response rating, Foxtail, Giant [6, 20]: 0
- Plant response rating, Pigweed [7, 17]: 90
- Plant response rating, Pigweed [7, 18]: 30
- Plant response rating (0 to 100), Pigweed ([7]; preemergence): 20
- Plant response rating, Pigweed [7, 20]: 20
- Plant response rating, Kochia (kochia (Kochia scoparia); [17]): 20
- Plant response rating, Kochia (kochia (Kochia scoparia); [18]): 0
- Plant response rating (0 to 100), Kochia (kochia (Kochia scoparia); preemergence): 0
- Plant response rating, Kochia (kochia (Kochia scoparia); [20]): 0
- Plant response rating (0 to 100), Nightshade (Nightshade): 0
- Plant response rating, Rice (rice (Oryza saliva); [21]): 0
- Plant response rating, Rice (rice (Oryza saliva); [22]): 0
- Plant response rating, Lambsquarters [8, 21]: 90
- Plant response rating, Lambsquarters [8, 22]: 0
- Plant response rating, Corn (corn (Zea mays); [21]): 0
- Plant response rating, Corn (corn (Zea mays); [22]): 0
- Plant response rating, Barnyardgrass [9, 21]: 90
- Plant response rating, Barnyardgrass [9, 22]: 0
- Plant response rating, Surinam grass [10, 21]: 30
- Plant response rating, Surinam grass [10, 22]: 0
- Plant response rating, Crabgrass [11, 21]: 100
- Plant response rating, Crabgrass [11, 22]: 100
- Plant response rating, Cocklebur [12, 21]: 0
- Plant response rating, Cocklebur [12, 22]: 0
- Plant response rating, Velvetleaf [13, 21]: 100
- Plant response rating, Velvetleaf [13, 22]: 100
- Plant response rating, Foxtail, Giant [14, 21]: 100
- Plant response rating, Foxtail, Giant [14, 22]: 20
- Plant response rating, Pigweed [15, 21]: 0
- Plant response rating, Pigweed [15, 22]: 0
- Plant response rating, Morningglory [16, 21]: 0
- Plant response rating, Morningglory [16, 22]: 0
